Laboratory results reported in patent US5244905A, “N-substituted cycloalkyl and polycycloalkyl polyhydro-β-carboline-phenylalanine- and phenethylamine derivatives” (Warner-Lambert Company, priority 1991, dated 1993).

Assays:
Central CCK Receptors = molecular target: T1, Central CCK Receptors (Mus musculus, UniProt P56481); test: Binding to central CCK receptors ([3H]-pentagastrin displacement, mouse cerebral cortical membranes); parameters: species or system mouse (male CFLP); settings: tritiated pentagastrin 2 nM, number of assays (n) = 2
T1 construct: from tissue; host or cells: cerebral cortex of male CFLP mice (washed membranes)
T1 sequence (P56481 1-453): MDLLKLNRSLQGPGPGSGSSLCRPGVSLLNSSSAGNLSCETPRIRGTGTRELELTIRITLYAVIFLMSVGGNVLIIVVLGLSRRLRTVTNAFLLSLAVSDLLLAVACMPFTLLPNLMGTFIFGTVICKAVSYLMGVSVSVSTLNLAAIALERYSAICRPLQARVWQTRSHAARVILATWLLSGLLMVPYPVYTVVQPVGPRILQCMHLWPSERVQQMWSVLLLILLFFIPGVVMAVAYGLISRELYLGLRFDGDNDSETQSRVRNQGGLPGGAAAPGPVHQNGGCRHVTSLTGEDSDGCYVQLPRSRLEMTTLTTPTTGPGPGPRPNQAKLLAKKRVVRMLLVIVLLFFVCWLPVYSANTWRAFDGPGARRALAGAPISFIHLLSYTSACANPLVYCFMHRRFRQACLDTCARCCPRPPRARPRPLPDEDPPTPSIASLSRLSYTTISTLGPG
Method: (§1) The biological activity of compounds of the present invention was evaluated employing an initial screening test which rapidly and accurately measured the binding of the tested compound to known CCK receptor sites. […] (See Hays et al, Neuropeptides 1:53-62, 1980; and Satuer et al, Science, 208:1155-1156, 1980.
(§2) In this screening test, the cerebral cortices taken from male CFLP mice weighing between 30-40 g were dissected on ice, weighed, and homogenized in 10 volumes of 50 mM Tris-HCl buffer (pH 7.4 at 0°-4° C.). The resulting suspension was centrifuged, the supernate was discarded, and the pellet was washed by resuspension in Tris-HCl buffer followed by recentrifugation. The final pellet was resuspended in 20 volumes of […] Hepes buffer (pH 7.2 at 23° C.) containing 130 mM NaCl, […] KCl, […] MgCl2, […] EDTA, 5 mg/mL bovine albumin, and bacitracin (0.25 mg/mL).
(§3) In saturation studies, cerebral cortical membranes were incubated at 23° C. for 120 minutes in a final volume of 500 μliter of Hepes incubation buffer (pH 7.2) together with 0.2-20 nM tritiated-pentagastrin (Amersham International, England).
(§4) In the displacement experiments, membranes were incubated with a single concentration (2 nM) of ligand, together with increasing concentrations ([…]) of competitive test compound. In each case, the nonspecific binding was defined as that persisting in the presence of the unlabeled octapeptide CCK26-33 (10^-6 M).
(§5) Following incubation, radioactivity bound to membranes was separated from that free in solution by rapid filtration through Whatman GF/B filters and washed three times with 4 mL of ice cold Tris-HCl buffer. Filters from samples incubated with tritiated-pentagastrin were placed in polyethylene vials with 4 mL of scintillation cocktail, and the radioactivity was estimated by liquid scintillation spectrometry (efficiency 47% to 52%).
(§6) The specific binding to CCK receptor sites was defined as the total bound tritiated-pentagastrin minus the amount of tritiated-pentagastrin bound in the presence of 10^-6 octapeptide, CCK26-33.
(§7) Saturation curves for specific tritiated-pentagastrin binding to mouse cortical membranes were analyzed by the methods of Scatchard (Ann. New York Acad. Sci. 51:660 672, 1949, and Hill (J. Physiol. 40:IV-VIII, 1910, to provide estimates for the maximum number of binding sites (Bmax) and the equilibrium dissociation constant ([…]).
(§8) In displacement experiments, inhibition curves were analyzed by either logit-log plots or the iterative curve fitting computer program ALLFIT (DeLean, Munson and Redbard, 1978) to provide estimates of the IC50 and nH (apparent Hill coefficient) values). (IC50 values were defined as the concentration of test compound required to produce 50% inhibition of specific binding.)
(§9) The inhibition constant (Ki) of the test compound was then calculated according to the Cheng-Prusoff equation: [formula] where [L] is the concentration of radiolabel and Ka is the equilibrium dissociation constant.
The Ki values for several representative compounds of the present invention are present in Table II.

CCK-B receptor = molecular target: T2, CCK-B receptor (Mus musculus, UniProt P56481); test: Binding to the CCK-B receptor (Table III); parameters: species or system mouse (male CFLP)
T2 construct: from tissue
T2 sequence (P56481 1-453): T1 sequence (P56481 1-453)
Method: as §1, §2, §3, §4, §5, §6, §7, §8, §9

A Ki (Central CCK Receptors) of 0.5 µM and a Ki (CCK-B receptor) of 0.5 µM were found for `CC1(C(=O)N[C@H](CO)Cc2ccccc2)Cc2c([nH]c3ccccc23)CN1C(=O)OC1C2CC3CC(C2)CC1C3` (mixture of isomers) [Example 4, 1,3,4,9-Tetrahydro-3-[[[1-(hydroxymethyl)-2-phenylethyl]amino]carbonyl]-3-methyl-2H-pyrido[3,4-b]indole-2-carboxylic acid,tricyclo[3.3.1.1^3,7]dec-2-yl ester (mixture of diastereomers)] in this work.

A Ki (Central CCK Receptors) of 3 µM and a Ki (CCK-B receptor) of 3 µM were found for `CC1(C(=O)NCC(N)c2ccccc2)Cc2c([nH]c3ccccc23)CN1C(=O)OC1C2CC3CC(C2)CC1C3` (mixture of isomers) [Example 8, 3-[[(2-Amino-2-phenylethyl)amino]carbonyl]-1,3,4,9-tetrahydro-3-methyl]-2H-pyrido[3,4-b]indole-2-carboxylic acid, tricyclo[3.3.1.1^3,7]dec-2-yl ester, (mixtures of diastereomers)] in this work.

A Ki (Central CCK Receptors) of 3 µM and a Ki (CCK-B receptor) of 3 µM were found for `CC1(C(=O)NCC(NC(=O)CCC(=O)OCc2ccccc2)c2ccccc2)Cc2c([nH]c3ccccc23)CN1C(=O)OC1C2CC3CC(C2)CC1C3` (mixture of isomers) [Example 11, 3-[3-[3-[2-[2-[1,4-Dioxo-4-(phenylmethoxy)butyl]amino]-2-phenylethyl]amino]carbonyl]-1,3,4,9-tetrahydro-3-methyl]-2H-pyrido[3,4-b]indole-2-carboxylic acid, tricyclo[3.3.1.1^3.7]dec-2-yl ester (mixture of diastereomers)] in this work.

A Ki (Central CCK Receptors) of 1 µM and a Ki (CCK-B receptor) of 1 µM were found for `CC1(C(=O)NCC(NC(=O)CC(=O)O)c2ccccc2)Cc2c([nH]c3ccccc23)CN1C(=O)OC1C2CC3CC(C2)CC1C3` (mixture of isomers) [Example 14, 3-[[[2-[(3-Carboxyacetyl)amino]-2-phenethyl]-amino]-carbonyl]-1,3,4,9-tetrahydro-3-methyl-2H-pyrido[3,4-b]indole-2-carboxylic acid, [tricyclo-[3.3.1.1^3,7]dec-2-yl ester (mixture of diastereomers)] in this work.

A Ki (Central CCK Receptors) of 0.71 µM and a Ki (CCK-B receptor) of 0.71 µM were found for `CC1(C(=O)NCC(NC(=O)/C=C\C(=O)O)c2ccccc2)Cc2c([nH]c3ccccc23)CN1C(=O)OC1C2CC3CC(C2)CC1C3` (mixture of isomers) [Example 15, 3-[[[2-[(3-Carboxy-1-oxo-2-propenyl)amino]-b 2-phenethyl]amino]carbonyl]1,3,4,9-tetrahydro-3-methyl-2H-pyrido[3,4-b]indole-2-carboxylic acid, [tricyclo-[3.3.1.1^3.7]dec-2-yl ester (mixture of diastereomers)] in this work.

A Ki (Central CCK Receptors) of 0.305 µM and a Ki (CCK-B receptor) of 0.305 µM were found for `CC1(C(=O)N[C@H](CNC(=O)CCC(=O)O)Cc2ccccc2)Cc2c([nH]c3ccccc23)CN1C(=O)OC1C2CC3CC(C2)CC1C3` (mixture of isomers) [Example 16, 3-[[1-(3-Carboxy-1-oxopropyl)amino]methyl]-1-phenethyl]amino]carbonyl]-1,3,4,9-tetrahydro-3-methyl2H-pyrido[3,4-b]indole-2-carboxylic acid, [tricyclo-[3.3.1.1^3,7]dec-2 yl ester (mixture of diastereomers)] in this work.

A Ki (Central CCK Receptors) of 0.15 µM and a Ki (CCK-B receptor) of 0.15 µM were found for `CC1(C(=O)NCCc2ccccc2)Cc2c([nH]c3ccccc23)CN1C(=O)OC1C2CC3CC(C2)CC1C3` (racemic) [Example 1, (±)1,3,4,9-Tetrahydro-3-methyl-3-[[2-phenylethyl)amino]carbonyl]-2H-pyrido[3,4-b]indole-2-carboxylic acid,tricyclo[3.3.1.1^3,7]dec-2-yl ester] in this work.

For `CC1(C(=O)NCCc2ccccc2)Cc2c([nH]c3ccccc23)CN1S(=O)(=O)NC1C2CC3CC(C2)CC1C3` (racemic) [Example 19, (+/-)-1,3,4,9-Tetrahydro-3-methyl-N-(2-phenylethyl)-2-(tricyclo[(3.3.1.1^3,7]dec-2-ylamino]sulfonyl]1H-pyrido-[3,4-b]indole-3-carboxamide], the “Ki CCK-B” value (CCK-B receptor) was “iA”.

For `C[C@@]1(C(=O)NCCc2ccccc2)Cc2c([nH]c3ccccc23)CN1C(=O)OC1C2CC3CC(C2)CC1C3` (stereo partly shown) [Example 3], the “Ki CCK-B” value (CCK-B receptor) was “iA”.
